Results taken from patent US12172989B2, “Histone acetyltransferase (HAT) inhibitor and use thereof” (SHANGHAI INSTITUTE OF MATERIA MEDICA, CHINESE ACADEMY OF …, priority 2018, dated 2024).

How the values were obtained:
[1] = system: human mantle cell lymphoma (MCL) cell line MAVER-1; assay: Cell growth inhibition experiment (CellTiter-Glo), MAVER-1; format: cell-based; details: Homo sapiens, Maver1, 120 h, MAVER-1 cells treated with the compound for 5 days
Procedure: The human mantle cell lymphoma (MCL) cell line MAVER-1 (from ATCC, CRL-3008) was cultured with RPMI 1640 medium (Gibco, available from Life Technologies Corporation, 22400-089) containing […] (Gibco, available from Life Technologies, 10099-141) and 1% antibiotics (penicillin and streptomycin, available from Life Technologies Corporation, 10378016) in a CO2 cell incubator (37° C., 5% CO2). In the cell growth inhibition experiment, MAVER-1 cells in exponential growth phase were seeded on a 96-well plate (purchased from Corning Company, 3599) in a volume of 100 μL/well and a cell density of 1*10E5 cells/well. After seeded, the plate was placed in a CO2 incubator to culture for 1 h. 100 μL of a compound at different concentrations diluted in 3-fold gradient or DMSO were added in a 96-well plate containing the cells. The final concentration of the compound ranges from 0.3 to 10000 nM, and the final concentration of DMSO is 0.05% as control group. The cells were treated with the compound for 5 days. Cell viability was measured using CellTiter-Glo reagent (purchased from Promega, G7572): the cells treated with the compound for 5 days was added with CellTiter-Glo reagent at 20 μL/well, incubated at room temperature for 10 min, transferred to a white 96-well plate (OptiPlate-96, purchased from PerkinElmer, 605299) by 80 μL. Subsequently, the luminescence signal was detected by using a multifunctional microplate reader EnVision (purchased from PerkinElmer) at a wavelength of 400-700 nm. The data was analyzed by using GraphPad Prism 5.0 software to obtain IC50.

[2] = system: Human castration resistant prostate cancer cell line 22Rv1; assay: Cell growth inhibition experiment (CellTiter-Glo), 22Rv1; format: cell-based; details: Homo sapiens, 120 h, 22Rv1 cells treated with the compound for 5 days
Procedure: Human castration resistant prostate cancer cell line 22Rv1 and LNCaP clone FGC (22Rv1 cell line was from ATCC, CRL-2505, LNCaP clone FGC cell line was purchased from Cell Bank of the Chinese Academy of Sciences) were cultured with RPMI 1640 medium (Gibco, available from Life Technologies Corporation, 22400-089) containing 10% fetal bovine serum (Gibco, available from Life Technologies, 10099-141) and 1% antibiotics (penicillin and streptomycin, available from Life Technologies Corporation, 10378016) in a CO2 cell incubator (37° C., 5% CO2). In the cell growth inhibition experiment, 22Rv1 and LNCaP clone FGC cells in exponential growth phase were seeded on a 96-well plate (purchased from Corning Company, 3599) with a volume of 150 μL/well and a cell density of 1,500 cells/well. After seeded, the plate was placed in a CO2 incubator to incubate overnight to allow the cells to adhere. On the next day, 50 μL of a compound at different concentrations diluted in 3-fold gradient or DMSO were added in a 96-well plate containing the cells. The final concentration of the compound ranges from 0.3 to 10000 nM, and the final concentration of DMSO is 0.05% as control group. The cells were treated by the compound for 5 days. Cell viability was measured using CellTiter-Glo reagent (purchased from Promega, G7572): the cell treated with the compound for 5 days was added with CellTiter-Glo reagent at 40 μL/well, incubated at room temperature for 10 min, transferred to a white 96-well plate (OptiPlate-96, purchased from PerkinElmer, 605299) by 70 μL. Subsequently, the luminescence signal was detected using a multifunctional microplate reader EnVision (purchased from PerkinElmer) at a wavelength of 400-700 nm. The data was analyzed by using GraphPad Prism 5.0 software to obtain IC50.

[3] = target: T1, histone acetyltransferase p300 (Homo sapiens, UniProt Q09472); assay: Histone acetyltransferase (p300) activity assay (radioisotope, [3H]-Ac-CoA); format: biochemical; details: p300 0.05 nM; histone peptide 600 nM, [3H]-Ac-CoA 250 nM; 60 min at room temperature; read-out: Inhibition rate IC50
T1 construct: purchased BPS Corporation 50071
T1 sequence (Q09472 1284-1673 limits assumed): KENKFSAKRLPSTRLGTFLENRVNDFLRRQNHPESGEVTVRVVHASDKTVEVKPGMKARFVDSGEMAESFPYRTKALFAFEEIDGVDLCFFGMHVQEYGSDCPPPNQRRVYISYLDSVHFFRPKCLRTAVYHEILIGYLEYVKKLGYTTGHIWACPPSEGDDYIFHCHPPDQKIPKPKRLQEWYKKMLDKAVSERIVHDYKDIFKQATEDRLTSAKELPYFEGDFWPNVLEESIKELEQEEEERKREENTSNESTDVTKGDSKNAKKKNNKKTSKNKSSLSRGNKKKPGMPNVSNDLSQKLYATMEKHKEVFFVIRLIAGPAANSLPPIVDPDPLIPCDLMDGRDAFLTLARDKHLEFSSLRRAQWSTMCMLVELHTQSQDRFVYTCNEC
Procedure: The reaction was finally terminated with Ac-CoA (Sigma, Cat. No. A2056) without isotope labeling. If the activity of the acetyltransferase p300 was inhibited, the isotope signal cannot be detected on the substrate polypeptide. Therefore, the inhibitory activity of the compound against the acetyltransferase p300 was evaluated.
In the enzyme reaction system, 200 nL of a diluted compound (100% DMSO) was first transferred to a test plate using Echo, where the final concentration of the compound in the enzyme reaction system ranges from 0.25 to 5000 nM. Then 10 μL/well of p300 protein (final concentration of 0.05 nM) was transferred therein, and incubated with the compound for 15 min at room temperature. Then 10 μL/well of a substrate mixture (final concentrations of histone peptide and [^3H]—Ac-CoA were 600 nM and 250 nM, respectively) was added to start the enzyme-catalyzed reaction, and incubated at room temperature for 60 min. Then 10 µL/well of a 250 μM cold Ac-CoA solution was added to stop the reaction. Finally 25 μL/well of the reaction solution was transferred to a 384-well Flashplate (Perkin Elmer, Cat. No. SMP410A001PK), and incubated at room temperature for 1 h. The resultant was washed with double distilled water+0.1% Tween-20 three times. The signal value was read by using Microbeta. The data was analyzed by using GraphPad Prism 5.0 software to obtain IC50.

Row | SMILES | IC50 [1] [nM] | IC50 [2] [nM] | IC50 [3] [nM]
1 | CNC(=O)Nc1ccc2c(c1)CCC21NC(=O)N(CC(=O)N2Cc3cc(F)ccc3OC[C@H]2C2CC2)C1=O (some centres unmarked) [ZB-P-21] | < 50 | < 100 | < 20
2 | CNC(=O)Cn1cc(-c2ccc3c(c2)CCC32NC(=O)N(CC(=O)N3Cc4ccc(F)cc4CC[C@H]3C3CC3)C2=O)cn1 (some centres unmarked) [SYY-B045] | – | < 100 | < 5
3 | CNC(=O)Nc1ccc2c(c1)OCCC21NC(=O)N(CC(=O)N2Cc3cc(F)ccc3OC[C@H]2C2CC2)C1=O (some centres unmarked) [SYY-B099] | – | 121 | < 20
4 | CNC(=O)Nc1ccc2c(c1)CCCC21NC(=O)N(CC(=O)N2Cc3cc(F)ccc3OC[C@H]2C2CC2)C1=O (some centres unmarked) [SYY-B092] | < 20 | – | < 20
5 | NC1(C(=O)Nc2ccc3c(c2)CC[C@]32OC(=O)N(CC(=O)N3Cc4ccc(F)cc4CC[C@H]3C3CC3)C2=O)CC1 [SYY-B035-1] | – | < 300 | < 5
6 | CNC(=O)Nc1ccc2c(c1)OCCC21OC(=O)N(CC(=O)N2Cc3ccc(F)cc3CC[C@H]2C2CC2)C1=O (some centres unmarked) [SYY-B077] | < 20 | < 20 | < 5
7 | Cn1cc(-c2ccc3c(c2)CCC32OC(=O)N(CC(=O)N3Cc4cc(F)ccc4OC[C@H]3C3CC3)C2=O)cn1 (some centres unmarked) [ZB-P-29] | < 10 | < 10 | < 10
8 | Cn1cc(-c2ccc3c(c2)C(O)C[C@]32NC(=O)N(CC(=O)N3Cc4cc(F)ccc4OC[C@H]3C3CC3)C2=O)cn1 (some centres unmarked) [SYY-B170-2] | – | – | < 20
9 | CNC(=O)Nc1ccc2c(c1)CCC21NC(=O)N(CC(=O)N2Cc3sccc3CC[C@H]2C2CC2)C1=O (some centres unmarked) [SYY-B124] | – | – | < 20

Other lines, results leading:

Row | IC50 [1] [nM] | IC50 [2] [nM] | IC50 [3] [nM] | SMILES
10 | < 20 | < 100 | < 20 | Cn1cc(-c2ccc3c(c2)CCC32OC(=O)N(CC(=O)N3Cc4cc(F)ccc4OC[C@H]3C(F)(F)F)C2=O)cn1 (some centres unmarked) [SYY-B084]
11 | – | < 300 | < 5 | NC1(C(=O)Nc2ccc3c(c2)CC[C@@]32OC(=O)N(CC(=O)N3Cc4ccc(F)cc4CC[C@H]3C3CC3)C2=O)CC1 [SYY-B035-2]
12 | < 50 | < 100 | < 20 | CNC(=O)Nc1ccc2c(c1)CCC21NC(=O)N(CC(=O)N2Cc3cc(F)ccc3OC[C@H]2C(F)(F)F)C1=O (some centres unmarked) [SYY-B083]
13 | – | < 50 | < 5 | Cn1cc(-c2ccc3c(c2)CCC32NC(=O)N(CC(=O)N3Cc4ccc(F)cc4CC[C@H]3C3CC3)C2=O)cn1 (some centres unmarked) [SYY-B043]
14 | ≤ 20 | < 20 | < 10 | CNC(=O)Nc1ccc2c(c1)CCCC21OC(=O)N(CC(=O)N2Cc3cc(F)ccc3OC[C@H]2C2CC2)C1=O (some centres unmarked) [SYY-B086]
15 | < 10 | < 10 | < 10 | Cn1cc(-c2ccc3c(c2)CCC32NC(=O)N(CC(=O)N3Cc4cc(F)ccc4OC[C@H]3C3CC3)C2=O)cn1 (some centres unmarked) [ZB-P-28]
16 | 65 | 10.5 | 2.4 | CNC(=O)Nc1ccc2c(c1)CC[C@@]21OC(=O)N(CC(=O)N2Cc3cc(F)ccc3OC[C@H]2C(F)(F)F)C1=O [SYY-B057-2]
17 | < 20 | – | < 10 | CNC(=O)Nc1ccc2c(c1)OCCC21NC(=O)N(CC(=O)N2Cc3ccc(F)cc3CC[C@H]2C2CC2)C1=O (some centres unmarked) [SYY-B074]
18 | < 20 | < 20 | < 20 | Cn1cc(-c2ccc3c(c2)CCCC32NC(=O)N(CC(=O)N3Cc4cc(F)ccc4OC[C@H]3C3CC3)C2=O)cn1 (some centres unmarked) [SYY-B093]
19 | – | – | 6.8 | CNC(=O)Nc1ccc2c(c1)CC[C@@]21OC(=O)N(CC(=O)N2Cc3cccnc3CC[C@H]2C2CC2)C1=O [SYY-B081-2]
20 | – | – | 200 | CNC(=O)Nc1ccc2c(c1)CC[C@]21OC(=O)N(CC(=O)N2Cc3ccccc3CC[C@@H]2C(C)C)C1=O [SYY-B020-1]
21 | – | – | < 10 | CNC(=O)Nc1ccc2c(c1)CC[C@@]21OC(=O)N(CC(=O)N2Cc3cnccc3CC[C@H]2C2CC2)C1=O [SYY-B136-2]
22 | – | – | 7 | CNC(=O)Nc1ccc2c(c1)CC[C@@]21OC(=O)N(CC(=O)N2Cc3sccc3OC[C@H]2C(F)(F)F)C1=O [SYY-B140-2]
